# Laboratory results reported in patent US20240058387A1, “CULTURE MEDIUM COMPOSITION FOR AMPLIFYING AND MAINTAINING SELF-RENEWAL CAPACITY AND DIFFERENTIATION POTENTIAL OF HSCS AND APPLICATION THEREOF” (EDIGENE (GUANGZHOU) INC., priority 2020, published 2024).
# Columns and labels:
# [1] = system: umbilical cord blood-derived CD34+ cells; assay: Cell counting: total cell number and absolute number of marker-positive cells after small molecule induction; type: cell-based, human; settings: 6 days
# Description: (§1) According to the solubility and required solvent indicated in the instructions of the small molecule inhibitor (see Table 1 for the Cat. number of the small molecule inhibitor), the preparation of the small molecule inhibitor stock solution was carried out. Next, the hematopoietic stem cell medium was prepared: SFEM II medium (stem cell, Cat. number: 09655)+50 ng/ml growth factor Flt-3L (PeProtech, Cat. number: 300-100UG)+50 ng/ml growth factor SCF (PeProtech, Cat. number): 300-07-100UG)+50 ng/ml growth factor TPO (PeProtech, Cat. number: 300-18-100UG)+10 ng/ml interleukin IL-6 (PeProtech, Cat. number: 200-06-20UG)+1% bispecific antibody (HyClone, Cat. No.: sv30010). According to the set concentration gradient of the small molecule inhibitor, the stock solution and the basal medium were used to prepare the medium containing different concentrations of the small molecule inhibitor.
# (§2) First, the prepared medium was added to a 24-well plate (Corning, Cat. number: 3473), 950 μl per well, and placing it in a carbon dioxide incubator (Thermo, model: 3111) to preheat; resuspending the spare umbilical cord Blood-derived HSCs of Example 1 with SFEM 11+50 ng/ml Flt-3L+50 ng/ml SCF+50 ng/ml TPO+10 ng/ml IL-6+1% bispecific antibody, calculating the medium volume to be added according to 50 μl cell suspension per well and 2*10^5/m1 cell density per well. For example, when the final volume of the cell culture solution per well was 1 ml, the total number of cells per well was 2*10^5 cells calculated according to the cell density per well, and the density of the […] of cell suspension supplemented to each well is 4*10^6/ml. The density of the spare HSCs of Example 1 was adjusted to the calculated density of the cell suspension, and adding it; taking out the preheated medium from the incubator, adding 50 μl of the cell suspension to each well, and after mixing, using the microscope (OLYMPUS, model: CKX53) to observe the cells state, and then putting it into an incubator for culturing.
# On the umbilical cord blood-derived CD34+ cells sorted in Example 1, the optimal concentration of the screened-out inhibitor AG1296 was screened in the same way as in Example 2. After 6 days of induction with different concentrations of the small molecule inhibitor AG1296, the expression of LT-HSCs cell surface markers (CD34+CD45+CD90+CD45RA−CD38−) was detected by flow cytometry using the same method as in Example 3. 20 μL of cell suspension was taken to count in a cell counter (Nexcelom, model: Cellometer K2) on the 6th day of culture, calculating the absolute number of the final CD34+ cells and LT-HSCs on the 6th day (absolute number of cells=total number of cells*sternness ratio). The results were shown in FIGS. 3A-3B and FIGS. 4A-4B, respectively.
# [2] = system: mobilized peripheral blood-derived CD34+ cells; assay: Cell counting: absolute number of marker-positive cells, comparison with UM171 and SR1; type: cell-based, human; settings: FIG. 5B, 8 days
# Description: as §1, §2
# On the mobilized peripheral blood-derived CD34+ cells sorted in Example 1, the screened-out inhibitor AG1296 and literature-reported (Fares I, et al. Science. 2014; Boitano A E, et al. Science. 2010) inhibitors UM171 and SR1 were compared in the same way as Example 2. Eight days after the induction of the small molecule inhibitor, the expression of LT-HSCs cell surface markers (CD34+CD45+CD90+CD45RA−CD38−) was detected by flow cytometry using the same method as in Example 3. After 8 days of culture, 20 μL of cell suspension was taken into a cell counter (Nexcelom, model: Cellometer K2) and counted, and the absolute numbers of the final CD34+ cells and LT-HSCs on […] were calculated (absolute number of cells=total number of cells*stemness ratio).
# [3] = FIG. 3B, 1 μM, 5 μM and 10 μM, vs Mock
structure (smiles),measurement,setting,value
COc1cc2ncc(-c3ccccc3)nc2cc1OC [AG1296],total cell number,"[1]; FIG. 3B, 1 μM vs 5 μM and 10 μM",higher cell numbers than that at concentrations of 5 μM and 10 μM
same,absolute number of proliferating LT-HSCs,"[1]; FIG. 3B, 1 μM, 5 μM and 10 μM",better effect
same,effect on cell proliferation,"[1]; FIG. 3B, 1 μM, 5 μM and 10 μM",slightly inhibited cell proliferation
same,absolute number of CD34+CD90+CD45RA- cells,[1]; [3],significantly better than the Mock group
same,absolute numbers of CD34+ cells,[1]; [3],lower than that in the mock group
same,absolute number of proliferating LT-HSCs relative to other groups,"[1]; FIG. 4B, 1 μM",1-2 times
same,effect on cell proliferation,"[1]; FIG. 4B, 1 μM",slightly inhibited cell proliferation
same,absolute number of CD34+ cells,"[1]; FIG. 4B, 1 μM, vs Mock, 100 nM, 500 nM groups",not significantly better than other groups
same,"absolute number of CD34+CD90+, and CD34+CD90+CD45RA- cells","[1]; FIG. 4B, 1 μM, vs other groups",significantly better than other groups
same,"absolute number of CD34+CD90+, and CD34+CD90+CD45RA- cells",[2]; 1 μM,showed superiority
same,effect on cell proliferation,[2]; 1 μM,could inhibit cell proliferation
same,absolute number of CD34+ cells,"[2]; AG1296 at 1 μM, UM171 concentration not given",not significantly better than other groups
